The record followed here is paper PMC4147343, “Icotinib antagonizes ABCG2-mediated multidrug resistance, but not the pemetrexed resistance mediated by thymidylate synthase and ABCG2” (Oncotarget, 2014).

Residue numbers refer to the chain shown, from its start.

For data set [1], the target named is T1, ABCG2 (Homo sapiens, UniProt Q9UNQ0).
T1 construct: wild-type ABCG2 in crude membranes of MCF-7 FLV1000 cells
T1 sequence (Q9UNQ0 1-655): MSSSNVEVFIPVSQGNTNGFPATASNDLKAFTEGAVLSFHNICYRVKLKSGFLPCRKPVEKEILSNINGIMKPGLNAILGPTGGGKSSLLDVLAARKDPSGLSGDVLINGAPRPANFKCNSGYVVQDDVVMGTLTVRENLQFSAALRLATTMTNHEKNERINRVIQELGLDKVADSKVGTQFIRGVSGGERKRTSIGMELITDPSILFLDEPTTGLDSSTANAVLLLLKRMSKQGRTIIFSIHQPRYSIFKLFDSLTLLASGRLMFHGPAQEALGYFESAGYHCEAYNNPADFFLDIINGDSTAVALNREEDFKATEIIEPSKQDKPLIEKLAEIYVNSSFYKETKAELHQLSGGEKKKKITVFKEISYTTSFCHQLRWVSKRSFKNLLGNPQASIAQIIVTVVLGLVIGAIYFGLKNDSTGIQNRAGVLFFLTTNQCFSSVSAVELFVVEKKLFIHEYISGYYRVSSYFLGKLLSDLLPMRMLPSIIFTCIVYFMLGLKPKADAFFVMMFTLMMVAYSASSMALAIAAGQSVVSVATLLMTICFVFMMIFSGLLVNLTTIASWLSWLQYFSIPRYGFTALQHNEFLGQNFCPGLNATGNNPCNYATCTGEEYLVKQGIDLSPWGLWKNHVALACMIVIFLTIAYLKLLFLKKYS
The data set is described as follows: competition of […]-IAAP photoaffinity labeling in crude membranes; also ATPase stimulation ([…] of maximum at […]). Type of data set: binding.

Data set [2] has as its target T2, ABCG2 (Homo sapiens, UniProt Q9UNQ0, R482G).
T2 construct: full-length ABCG2 in transfected HEK293 cells (ABCG2-482-G2)
T2 sequence (Q9UNQ0 1-655 R482G): T1 sequence (Q9UNQ0 1-655) with R482G
Put plainly: [3H]-mitoxantrone accumulation in transfected cells ([…]). The format is cell-based.

As usually defined, the IC50 is the midpoint of a concentration-inhibition curve. Low values mean greater potency, high ones weaker potency. The compound `C#Cc1cccc(Nc2ncnc3cc4c(cc23)OCCOCCOCCO4)c1` [Icotinib] yielded an IC50 in data set [1] of 1610 nM. Besides, in data set [2], the “[3H]-mitoxantrone accumulation in transfected cells (1.0 and 5.0 μM)” value was “significantly increased intracellular accumulation of [^3H]-MX in both the NCI-H460 and NCI-H460/MX20 cells, as well as the ABCG2-482-R2, ABCG2-482-G2”.
